# Molecular target: T1, P2X purinoceptor 2 (Rattus norvegicus, UniProt P49653)
# T1 sequence (P49653 whole entry): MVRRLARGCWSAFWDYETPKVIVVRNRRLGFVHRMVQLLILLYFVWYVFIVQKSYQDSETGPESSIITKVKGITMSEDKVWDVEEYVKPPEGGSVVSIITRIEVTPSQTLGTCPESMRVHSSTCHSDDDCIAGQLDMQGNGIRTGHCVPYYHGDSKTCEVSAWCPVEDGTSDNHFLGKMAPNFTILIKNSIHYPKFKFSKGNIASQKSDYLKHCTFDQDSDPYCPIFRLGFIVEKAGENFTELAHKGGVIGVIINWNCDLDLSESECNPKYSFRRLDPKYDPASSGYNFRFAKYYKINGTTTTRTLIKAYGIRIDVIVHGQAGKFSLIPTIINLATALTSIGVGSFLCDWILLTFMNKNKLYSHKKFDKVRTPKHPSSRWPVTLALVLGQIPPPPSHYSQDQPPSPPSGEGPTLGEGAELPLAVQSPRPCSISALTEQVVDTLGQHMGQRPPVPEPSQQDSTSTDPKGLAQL
# Assay: Antagonist activity against rat […] receptor expressed in Xenopus laevis oocyte assessed as inhibition of alpha, beta-meATP-induced inward current by two-electrode voltage-clamp electrophysiology
smiles,measurement,value
"Nc1ncnc2c1ncn2C1OC(COP(=O)(O)OP(=O)(O)OP(=O)(O)O)C2OC3(OC21)C([N+](=O)[O-])=CC([N+](=O)[O-])=CC3=[N+]([O-])[O-] (stereo not drawn) [sodium(3a'R,4'R,6'R,6a'R)-4'-(6-amino-9H-purin-9-yl)-2,6-dinitro-6'-((oxido(oxido(phosphonatooxy)phosphoryloxy)phosphoryloxy)methyl)-3a',4',6',6a'-tetrahydrospiro[cyclohexa[2,5]diene-1,2'-furo[3,4-d][1,3]dioxole]-4-ylideneazinate]",IC50,4 µM

# From BindingDB's records for doi:10.1021/jm1012193 (University of Bonn, 2012)
